From PMC3631420 (Science translational medicine, 2012)

T1: GST-β-catenin (human, UniProt P35222 1-781)
T1 sequence (looked up): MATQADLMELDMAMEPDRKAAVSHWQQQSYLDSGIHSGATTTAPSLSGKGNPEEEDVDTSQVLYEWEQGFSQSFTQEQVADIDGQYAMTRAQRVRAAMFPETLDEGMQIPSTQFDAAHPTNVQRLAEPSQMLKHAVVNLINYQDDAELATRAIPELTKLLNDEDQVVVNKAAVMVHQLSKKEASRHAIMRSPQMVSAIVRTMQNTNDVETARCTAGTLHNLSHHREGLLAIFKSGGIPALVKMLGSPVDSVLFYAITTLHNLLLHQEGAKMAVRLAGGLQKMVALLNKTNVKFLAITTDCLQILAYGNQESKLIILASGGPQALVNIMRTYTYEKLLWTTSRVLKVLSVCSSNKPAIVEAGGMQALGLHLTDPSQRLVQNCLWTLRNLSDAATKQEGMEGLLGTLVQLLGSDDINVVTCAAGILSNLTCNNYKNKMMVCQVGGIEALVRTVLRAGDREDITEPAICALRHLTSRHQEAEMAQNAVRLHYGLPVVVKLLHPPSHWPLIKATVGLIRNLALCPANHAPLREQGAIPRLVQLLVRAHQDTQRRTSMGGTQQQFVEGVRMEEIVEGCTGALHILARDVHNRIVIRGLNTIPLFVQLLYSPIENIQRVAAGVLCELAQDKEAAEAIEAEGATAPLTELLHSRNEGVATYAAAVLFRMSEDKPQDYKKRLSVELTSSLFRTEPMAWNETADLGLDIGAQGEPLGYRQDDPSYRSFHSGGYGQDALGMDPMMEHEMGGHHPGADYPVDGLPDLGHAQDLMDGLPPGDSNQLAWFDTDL


Columns and labels:
[1] = test system: β-catenin/TCF interaction; conditions: cited from earlier work
[2] = test system: CRC and MM; conditions: cited from earlier work
[3] = cited from earlier work
[4] = target: T1, GST-β-catenin; test: pull-down

binding result [4] | Molecule | Wnt-specific transcriptional activity [1] | growth of CRC and MM [2] | toxicity in treated mice [3]
– | PKF115-584 | blocked Wnt-specific transcriptional activity | reduced the growth | induced severe bone marrow hypoplasia, anemia, and generalized wasting
binds | His-BCL9 (residues 243–469) (domain or fragment, human, UniProt O00512 243-469, looked up) NQDQNSSQNTRLQPTPPIPAPAPKPAAPPRPLDRESPGVENKLIPSVGSPASSTPLPPDGTGPNSTPNNRAVTPVSQGSNSSSADPKAPPPPPVSSGEPPTLGENPDGLSQEQLEHRERSLQTLRDIQRMLFPDEKEFTGAQSGGPQQNPGVLDGPQKKPEGPIQAMMAQSQSLGKGPGPRTDVGAPFGPQGHRDVPFSPDEMVPPSMNSQSGTIGPDHLDHMTPEQ | – | – | –
